The text below walks through data of US20240050428A1 (Cullgen (Shanghai), Inc., priority 2020, published 2024).

The subject of one test is MV4;11 cells. Put plainly: Cell viability assay (CellTiter-Glo) in MV4;11 cells, alone or with gilteritinib. Conditions: Homo sapiens, MV4-11, 72 h, MV4;11 cells, three days, CellTiter-Glo, read-out: MV4. It is filed as cell-based.
For another test, the system named is MOLM-13 cells. Put plainly: Cell viability assay (CellTiter-Glo) in MOLM-13 cells, alone or with gilteritinib. It is filed as cell-based. Conditions: Homo sapiens, MOLM-13, 72 h, MOLM-13 cells, three days, CellTiter-Glo.
Setting [1] is: compound alone (without gilteritinib), 11 IC50.
Setting [2] is: with gilteritinib 10 nM, 11 IC50 gilteritinib.
Where [3] appears, read: compound alone (without gilteritinib), read-out: MOLM-13 IC50.
The mark [4] stands for this setting: with gilteritinib 20 nM, read-out: MOLM-13 IC50 gilteritinib.

Read-outs that look alike come from different tables or passages of the source.

Regarding `O=C1CCC(N2C(=O)c3ccc(NC[C@H]4C[C@H](n5cc(-c6cccc(=O)[nH]6)c(C6CC6)n5)C4)cc3C2=O)C(=O)N1` (stereo partly drawn) [GS-270, 5-(((trans-3-(3-Cyclopropyl-4-(6-oxo-1,6-dihydropyridin-2-yl)-1H-pyrazol-1-yl)cyclobutyl)methyl)amino)-2-(2,6-dioxopiperidin-3-yl)isoindoline-1,3-dione], the IC50 in the test with MV4;11 cells (setting [1]), in the test with MV4;11 cells (setting [2]), with MOLM-13 cells (setting [3]) and in the test on MOLM-13 cells (setting [4]) was more than 1000 nM each time.
In the case of `O=C(Cn1cc(-c2cnc3ccccc3n2)c(C2CC2)n1)NCc1ccc2c(c1)C(=O)N(C1CCC(=O)NC1=O)C2=O` (centres unmarked) [GS-271, 2-(3-Cyclopropyl-4-(quinoxalin-2-yl)-1H-pyrazol-1-yl)-N-((2-(2,6-dioxopiperidin-3-yl)-1,3-dioxoisoindolin-5-yl)methyl)acetamide], the IC50 in the test on MV4;11 cells (setting [1]) is 10 to 100 nM; in the test on MV4;11 cells (setting [2]), 10 to 100 nM; in the test with MOLM-13 cells (setting [3]), 100 to 1000 nM; in the test with MOLM-13 cells (setting [4]), 10 to 100 nM.
Regarding `O=C1CCC(N2C(=O)c3ccc(NC[C@H]4C[C@H](n5cc(-c6ncccc6Cl)c(C6CC6)n5)C4)cc3C2=O)C(=O)N1` (stereo partly drawn) [GS-272, 5-(((trans-3-(4-(3-Chloropyridin-2-yl)-3-cyclopropyl-1H-pyrazol-1-yl)cyclobutyl)methyl)amino)-2-(2,6-dioxopiperidin-3-yl)isoindoline-1,3-dione], the IC50 in the test with MV4;11 cells (setting [1]) is less than 10 nM; with MV4;11 cells (setting [2]), less than 10 nM; in the test on MOLM-13 cells (setting [3]), 10 to 100 nM; in the test with MOLM-13 cells (setting [4]), less than 10 nM.
`Nc1cccc(-c2cn([C@H]3C[C@H](CNc4ccc5c(c4)C(=O)N(C4CCC(=O)NC4=O)C5=O)C3)nc2C2CC2)n1` (stereo partly drawn) [GS-273, 5-(((trans-3-(4-(6-aminopyridin-2-yl)-3-cyclopropyl-1H-pyrazol-1-yl)cyclobutyl)methyl)amino)-2-(2,6-dioxopiperidin-3-yl)isoindoline-1,3-dione]: the IC50 in the test on MV4;11 cells (setting [1]) was 100 to 1000 nM; in the test with MV4;11 cells (setting [2]) it was 10 to 100 nM; in the test with MOLM-13 cells (setting [3]) it was more than 1000 nM; with MOLM-13 cells (setting [4]) it was 100 to 1000 nM.
On to `O=C1CCC(N2C(=O)c3ccc(NC[C@H]4C[C@H](n5cc(-c6cccc(NC7CNC7)n6)c(C6CC6)n5)C4)cc3C2=O)C(=O)N1` (stereo partly drawn) [GS-274, 5-(((trans-3-(4-(6-(Azetidin-3-ylamino)pyridin-2-yl)-3-cyclopropyl-1H-pyrazol-1-yl)cyclobutyl)methyl)amino)-2-(2,6-dioxopiperidin-3-yl)isoindoline-1,3-dione], for which the IC50 with MV4;11 cells (setting [1]), in the test on MV4;11 cells (setting [2]), in the test with MOLM-13 cells (setting [3]) and in the test with MOLM-13 cells (setting [4]) was more than 1000 nM each time.
On to `COc1ccc(-c2cn([C@H]3C[C@H](CNc4ccc5c(c4)C(=O)N(C4CCC(=O)NC4=O)C5=O)C3)nc2C2CC2)nc1` (stereo partly drawn) [GS-275, 5-(((trans-3-(3-Cyclopropyl-4-(5-methoxypyridin-2-yl)-1H-pyrazol-1-yl)cyclobutyl)methyl)amino)-2-(2,6-dioxopiperidin-3-yl)isoindoline-1,3-dione], for which the IC50 lay within 10 to 100 nM with MV4;11 cells (setting [1]), 10 to 100 nM in the test on MV4;11 cells (setting [2]), 100 to 1000 nM with MOLM-13 cells (setting [3]) and 10 to 100 nM in the test on MOLM-13 cells (setting [4]).
For the molecule `CN(C)c1ccc(-c2cn([C@H]3C[C@H](CNc4ccc5c(c4)C(=O)N(C4CCC(=O)NC4=O)C5=O)C3)nc2C2CC2)nc1` (stereo partly drawn) [GS-276, 5-(((trans-3-(3-Cyclopropyl-4-(5-(dimethylamino)pyridin-2-yl)-1H-pyrazol-1-yl)cyclobutyl)methyl)amino)-2-(2,6-dioxopiperidin-3-yl)isoindoline-1,3-dione], the IC50 in the test with MV4;11 cells (setting [1]) is 10 to 100 nM; in the test on MV4;11 cells (setting [2]) it was less than 10 nM; with MOLM-13 cells (setting [3]) it was 100 to 1000 nM; in the test with MOLM-13 cells (setting [4]), 10 to 100 nM.
Turning to `O=C1CCC(N2C(=O)c3ccc(NC[C@H]4C[C@H](n5cc(-c6ncccc6C(F)(F)F)c(C6CC6)n5)C4)cc3C2=O)C(=O)N1` (stereo partly drawn) [GS-277, 5-(((trans-3-(3-Cyclopropyl-4-(3-(trifluoromethyl)pyridin-2-yl)-1H-pyrazol-1-yl)cyclobutyl)methyl)amino)-2-(2,6-dioxopiperidin-3-yl)isoindoline-1,3-dione], the IC50 with MV4;11 cells (setting [1]), in the test with MV4;11 cells (setting [2]), in the test with MOLM-13 cells (setting [3]) and with MOLM-13 cells (setting [4]) was less than 10 nM each time.
Consider `O=C1CCC(N2C(=O)c3ccc(NC[C@H]4C[C@H](n5cc(-c6nccc7[nH]ccc67)c(C6CC6)n5)C4)cc3C2=O)C(=O)N1` (stereo partly drawn) [GS-278, 5-(((trans-3-(3-Cyclopropyl-4-(1H-pyrrolo[3,2-c]pyridin-4-yl)-1H-pyrazol-1-yl)cyclobutyl)methyl)amino)-2-(2,6-dioxopiperidin-3-yl)isoindoline-1,3-dione], for which the IC50 in the test on MV4;11 cells (setting [1]) is less than 10 nM; in the test with MV4;11 cells (setting [2]) it was less than 10 nM; with MOLM-13 cells (setting [3]), 10 to 100 nM; in the test with MOLM-13 cells (setting [4]) it was less than 10 nM.
For `O=C1CCC(N2C(=O)c3ccc(NC[C@H]4C[C@H](n5cc(-c6cc7cc[nH]c7cn6)c(C6CC6)n5)C4)cc3C2=O)C(=O)N1` (stereo partly drawn) [GS-279, 5-(((trans-3-(3-Cyclopropyl-4-(1H-pyrrolo[2,3-c]pyridin-5-yl)-1H-pyrazol-1-yl)cyclobutyl)methyl)amino)-2-(2,6-dioxopiperidin-3-yl)isoindoline-1,3-dione], the IC50 with MV4;11 cells (setting [1]) is 100 to 1000 nM; with MV4;11 cells (setting [2]) it was 10 to 100 nM; with MOLM-13 cells (setting [3]), more than 1000 nM; in the test on MOLM-13 cells (setting [4]) it was 10 to 100 nM.
As to `O=C1CCC(N2C(=O)c3ccc(NC[C@H]4C[C@H](n5cc(-c6nccc7cnccc67)c(C6CC6)n5)C4)cc3C2=O)C(=O)N1` (stereo partly drawn) [GS-280, 5-(((trans-3-(3-Cyclopropyl-4-(2,6-naphthyridin-1-yl)-1H-pyrazol-1-yl)cyclobutyl)methyl)amino)-2-(2,6-dioxopiperidin-3-yl)isoindoline-1,3-dione], the IC50 in the test with MV4;11 cells (setting [1]), in the test on MV4;11 cells (setting [2]), in the test with MOLM-13 cells (setting [3]) and in the test with MOLM-13 cells (setting [4]) was less than 10 nM in each case.
In the case of `O=C1CCC(N2C(=O)c3ccc(NC[C@H]4C[C@H](n5cc(-c6nccc7ncccc67)c(C6CC6)n5)C4)cc3C2=O)C(=O)N1` (stereo partly drawn) [GS-281, 5-(((trans-3-(3-Cyclopropyl-4-(1,6-naphthyridin-5-yl)-1H-pyrazol-1-yl)cyclobutyl)methyl)amino)-2-(2,6-dioxopiperidin-3-yl)isoindoline-1,3-dione], the IC50 was less than 10 nM in the test on MV4;11 cells (setting [1]), less than 10 nM in the test on MV4;11 cells (setting [2]), 10 to 100 nM with MOLM-13 cells (setting [3]) and less than 10 nM with MOLM-13 cells (setting [4]).
For the molecule `O=C1CCC(N2C(=O)c3ccc(NC[C@H]4C[C@H](n5cc(-c6cc7[nH]ccc7cn6)c(C6CC6)n5)C4)cc3C2=O)C(=O)N1` (stereo partly drawn) [GS-282, 5-(((trans-3-(3-Cyclopropyl-4-(1H-pyrrolo[3,2-c]pyridin-6-yl)-1H-pyrazol-1-yl)cyclobutyl)methyl)amino)-2-(2,6-dioxopiperidin-3-yl)isoindoline-1,3-dione], the IC50 in the test with MV4;11 cells (setting [1]) was 10 to 100 nM; in the test with MV4;11 cells (setting [2]), less than 10 nM; in the test on MOLM-13 cells (setting [3]), 100 to 1000 nM; in the test with MOLM-13 cells (setting [4]), 10 to 100 nM.
With `O=C1CCC(N2C(=O)c3ccc(NC[C@H]4C[C@H](n5cc(-c6ccc(F)cn6)c(C6CC6)n5)C4)cc3C2=O)C(=O)N1` (stereo partly drawn) [GS-283, 5-(((trans-3-(3-Cyclopropyl-4-(5-fluoropyridin-2-yl)-1H-pyrazol-1-yl)cyclobutyl)methyl)amino)-2-(2,6-dioxopiperidin-3-yl)isoindoline-1,3-dione], the IC50 in the test on MV4;11 cells (setting [1]) was 100 to 1000 nM; with MV4;11 cells (setting [2]), 10 to 100 nM; with MOLM-13 cells (setting [3]), more than 1000 nM; in the test on MOLM-13 cells (setting [4]), 10 to 100 nM.
